Test system: NOMO1
Test: cell viability relative to DMSO control; higher = less cytotoxic
Settings: 48 h
How it was run: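 Leukemia cells (NOMO1 or SEM, 500 cells/well; P12-Ichikawa, 1000 cells/well) were seeded in 5 μl in 1536-well plates after at least four passages of adaptation to each medium. They received library compounds in DMSO by pin dosing, 11 threefold points from 47 μM to 0.79 nM. Luminescence with CellTiter-Glo One was read after 48 h at 37°C. Viability is stated per plate relative to DMSO wells, with cell-free wells as background.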

[1] = HPLM + 10% dialyzed FBS, 0.000781 µM
[2] = HPLM + 10% dialyzed FBS, 0.00234 µM
[3] = HPLM + 10% dialyzed FBS, 0.00702 µM
[4] = HPLM + 10% dialyzed FBS, 0.0211 µM
[5] = HPLM + 10% dialyzed FBS, 0.0632 µM
[6] = HPLM + 10% dialyzed FBS, 0.19 µM
[7] = HPLM + 10% dialyzed FBS, 0.569 µM
[8] = HPLM + 10% dialyzed FBS, 1.71 µM
[9] = HPLM + 10% dialyzed FBS, 5.12 µM
[10] = HPLM + 10% dialyzed FBS, 15.4 µM
[11] = HPLM + 10% dialyzed FBS, 46.1 µM
[12] = RPMI 5 mM glucose + 10% FBS, 0.000781 µM
[13] = RPMI 5 mM glucose + 10% FBS, 0.00234 µM
[14] = RPMI 5 mM glucose + 10% FBS, 0.00702 µM
[15] = RPMI 5 mM glucose + 10% FBS, 0.0211 µM
[16] = RPMI 5 mM glucose + 10% FBS, 0.0632 µM
[17] = RPMI 5 mM glucose + 10% FBS, 0.19 µM
[18] = RPMI 5 mM glucose + 10% FBS, 0.569 µM
[19] = RPMI 5 mM glucose + 10% FBS, 1.71 µM
[20] = RPMI 5 mM glucose + 10% FBS, 5.12 µM
[21] = RPMI 5 mM glucose + 10% FBS, 15.4 µM
[22] = RPMI 5 mM glucose + 10% FBS, 46.1 µM
[23] = RPMI 5 mM glucose + 10% dialyzed FBS, 0.000781 µM
[24] = RPMI 5 mM glucose + 10% dialyzed FBS, 0.00234 µM
[25] = RPMI 5 mM glucose + 10% dialyzed FBS, 0.00702 µM
[26] = RPMI 5 mM glucose + 10% dialyzed FBS, 0.0211 µM
[27] = RPMI 5 mM glucose + 10% dialyzed FBS, 0.0632 µM
[28] = RPMI 5 mM glucose + 10% dialyzed FBS, 0.19 µM
[29] = RPMI 5 mM glucose + 10% dialyzed FBS, 0.569 µM
[30] = RPMI 5 mM glucose + 10% dialyzed FBS, 1.71 µM
[31] = RPMI 5 mM glucose + 10% dialyzed FBS, 5.12 µM
[32] = RPMI 5 mM glucose + 10% dialyzed FBS, 15.4 µM
[33] = RPMI 5 mM glucose + 10% dialyzed FBS, 46.1 µM

## CN[C@@H](C)C(=O)N[C@H]1CCCC[C@H]2CC[C@@H](C(=O)N[C@@H](c3ccccc3)c3cn(CCCCc4ccc(CCCCn5cc([C@@H](NC(=O)[C@@H]6CC[C@@H]7CCCC[C@H](NC(=O)[C@H](C)NC)C(=O)N76)c6ccccc6)nn5)cc4)nn3)N2C1=O
[1]
  cell viability: 82.8%
[2]
  cell viability: 79.3%
[3]
  cell viability: 56%
[4]
  cell viability: 61%
[5]
  cell viability: 42.3%
[6]
  cell viability: 54.4%
[7]
  cell viability: 50.6%
[8]
  cell viability: 47.9%
[9]
  cell viability: 48%
[10]
  cell viability: 27.5%
[11]
  cell viability: 33.4%
[12]
  cell viability: 85.6%
[13]
  cell viability: 82.4%
[14]
  cell viability: 80.8%
[15]
  cell viability: 87.9%
[16]
  cell viability: 48.4%
[17]
  cell viability: 61.5%
[18]
  cell viability: 74%
[19]
  cell viability: 70.8%
[20]
  cell viability: 51.8%
[21]
  cell viability: 51.2%
[22]
  cell viability: 57.1%
[23]
  cell viability: 75.9%
[24]
  cell viability: 81.6%
[25]
  cell viability: 84.8%
[26]
  cell viability: 64.9%
[27]
  cell viability: 65.5%
[28]
  cell viability: 72.2%
[29]
  cell viability: 53.6%
[30]
  cell viability: 52.2%
[31]
  cell viability: 42.6%
[32]
  cell viability: 54.7%
[33]
  cell viability: 34.2%

## CCOc1cc2c(c(F)c1OCC)C(=N)N(CC(=O)c1cc(N3CCOCC3)c(OC)c(C(C)(C)C)c1)C2
[1]
  cell viability: 98.4%
[2]
  cell viability: 121%
[3]
  cell viability: 118%
[4]
  cell viability: 138%
[5]
  cell viability: 115%
[6]
  cell viability: 148%
[7]
  cell viability: 131%
[8]
  cell viability: 125%
[9]
  cell viability: 142%
[10]
  cell viability: 127%
[11]
  cell viability: 118%
[12]
  cell viability: 109%
[13]
  cell viability: 112%
[14]
  cell viability: 104%
[15]
  cell viability: 109%
[16]
  cell viability: 130%
[17]
  cell viability: 108%
[18]
  cell viability: 123%
[19]
  cell viability: 121%
[20]
  cell viability: 122%
[21]
  cell viability: 135%
[22]
  cell viability: 126%
[23]
  cell viability: 113%
[24]
  cell viability: 122%
[25]
  cell viability: 121%
[26]
  cell viability: 129%
[27]
  cell viability: 131%
[28]
  cell viability: 124%
[29]
  cell viability: 124%
[30]
  cell viability: 139%
[31]
  cell viability: 141%
[32]
  cell viability: 138%
[33]
  cell viability: 130%

## Clc1ccc(COC(Cn2ccnc2)c2ccc(Cl)cc2Cl)cc1 (stereo not drawn)
[1]
  cell viability: 118%
[2]
  cell viability: 119%
[3]
  cell viability: 105%
[4]
  cell viability: 115%
[5]
  cell viability: 111%
[6]
  cell viability: 104%
[7]
  cell viability: 111%
[8]
  cell viability: 127%
[9]
  cell viability: 132%
[10]
  cell viability: 118%
[11]
  cell viability: 93.2%
[12]
  cell viability: 107%
[13]
  cell viability: 104%
[14]
  cell viability: 110%
[15]
  cell viability: 123%
[16]
  cell viability: 111%
[17]
  cell viability: 109%
[18]
  cell viability: 121%
[19]
  cell viability: 117%
[20]
  cell viability: 119%
[21]
  cell viability: 110%
[22]
  cell viability: 102%
[23]
  cell viability: 114%
[24]
  cell viability: 112%
[25]
  cell viability: 103%
[26]
  cell viability: 121%
[27]
  cell viability: 115%
[28]
  cell viability: 125%
[29]
  cell viability: 121%
[30]
  cell viability: 120%
[31]
  cell viability: 114%
[32]
  cell viability: 121%
[33]
  cell viability: 83.6%

## CCc1cc(/C(C)=N/OCc2ccc(C3CCCCC3)c(C(F)(F)F)c2)ccc1CN1CC(C(=O)O)C1
[1]
  cell viability: 111%
[2]
  cell viability: 133%
[3]
  cell viability: 106%
[4]
  cell viability: 108%
[5]
  cell viability: 129%
[6]
  cell viability: 109%
[7]
  cell viability: 108%
[8]
  cell viability: 79.1%
[9]
  cell viability: 66.4%
[10]
  cell viability: 31.8%
[11]
  cell viability: 40.1%
[12]
  cell viability: 110%
[13]
  cell viability: 113%
[14]
  cell viability: 104%
[15]
  cell viability: 115%
[16]
  cell viability: 135%
[17]
  cell viability: 115%
[18]
  cell viability: 120%
[19]
  cell viability: 107%
[20]
  cell viability: 107%
[21]
  cell viability: 26.8%
[22]
  cell viability: 20.9%
[23]
  cell viability: 99%
[24]
  cell viability: 116%
[25]
  cell viability: 117%
[26]
  cell viability: 112%
[27]
  cell viability: 119%
[28]
  cell viability: 114%
[29]
  cell viability: 115%
[30]
  cell viability: 103%
[31]
  cell viability: 103%
[32]
  cell viability: 26.6%
[33]
  cell viability: 29%

## CCCCCCCCCCCCCCCC(=O)OC[C@@H](NC(=O)C(Cl)Cl)[C@H](O)c1ccc([N+](=O)[O-])cc1
[1]
  cell viability: 105%
[2]
  cell viability: 123%
[3]
  cell viability: 126%
[4]
  cell viability: 143%
[5]
  cell viability: 118%
[6]
  cell viability: 141%
[7]
  cell viability: 140%
[8]
  cell viability: 144%
[9]
  cell viability: 141%
[10]
  cell viability: 144%
[11]
  cell viability: 142%
